Laboratory results from patent US20110086898A1, “PYRAZOLOOXAZOLE COMPOUND” (Eisai R&D Management Co., Ltd., priority 2009, published 2011).
Blank lines part the entries; values can stand above or below the compound they belong to.

How the values were obtained:
[1] = tested on: stress-related reduction in food intake; conditions: Brain Research, 823: 221-225 (1999); cited from earlier work
human CRFR1 = biological target: T1, human CRFR1 (Homo sapiens, UniProt P34998); test: CRFR1 binding test (SPA competition with 125I-CRF); conditions: membrane fraction of human CRFR1-expressing HEK293 cells, read-out: CRF1 receptor binding capacity IC50
T1 construct: The full-length CRFR1 gene was obtained by PCR by using human brain cDNA library; expressed in transfected cells
T1 sequence (P34998 24-415): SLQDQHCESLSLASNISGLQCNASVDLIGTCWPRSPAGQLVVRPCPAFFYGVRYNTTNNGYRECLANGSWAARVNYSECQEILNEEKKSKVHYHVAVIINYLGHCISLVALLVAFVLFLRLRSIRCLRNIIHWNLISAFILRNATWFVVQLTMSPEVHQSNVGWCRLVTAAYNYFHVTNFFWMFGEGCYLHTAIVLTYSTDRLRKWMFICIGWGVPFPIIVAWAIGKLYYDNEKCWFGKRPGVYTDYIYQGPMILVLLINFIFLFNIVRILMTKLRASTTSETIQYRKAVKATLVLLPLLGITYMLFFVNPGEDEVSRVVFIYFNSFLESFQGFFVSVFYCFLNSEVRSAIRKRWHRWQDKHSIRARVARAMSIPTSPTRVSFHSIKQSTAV
Protocol: (1) Preparation of CRFR1-Expressing Cells
The membrane fraction of human CRFR1 high-expressing cells was used as the material for a CRFR1 binding experiment. The CRFR1-expressing cells were prepared in the following manner. The full-length CRFR1 gene was obtained by PCR by using human brain cDNA library (QuickClone™, Clontech). The obtained DNA fragment was inserted into a cloning vector and the base sequence was confirmed cDNA having the proper base sequence was linked to an expression vector (pcDNA3.1™, Invitrogen). The CRFR1 expression vector was genetically introduced into HEK293 cell, and the resistant cells which proliferated in culture medium containing G418 (1 mg/ml) were cloned by the limiting dilution method. Out of the cloned cells, cells having high binding capacity between the membrane fraction per unit protein and sauvagine were selected according to the following binding experiment, and the selected cells were used for the experiments.
(2) Preparation of Membrane Fraction
The cloned cells obtained in (1) were collected and suspended in ice-cooled membrane buffer (50 mM Tris-HCl, 5 mM MgCl2, 2 mM EGTA, 1 mM DTT, protease inhibitor cocktail (COMPLETE™, Roche Diagnostics) pH 7.3), and then the cells were disrupted with a Polytron (KINEMATICA) while cooling on ice (level 5, 10 seconds, 2-5 times, ice-cooling) and then centrifuged (2,000 rpm, 5 minutes, 4° C.), followed by collecting the supernatant. Membrane buffer was added to the precipitate, and the mixture was subjected to Polytron treatment (same conditions as mentioned above) and centrifuged (conditions as mentioned above), and the obtained supernatant was collected and combined with the previous supernatant. This was centrifuged (13,000 rpm (18,000×g), 30 minutes, 4° C.) to prepare cell membranes. The precipitated cell membranes were suspended in membrane buffer and disrupted with a Polytron (level 5, 10 seconds, 3-5 times, ice-cooling) to prepare a dispersed suspension. The protein assay was carried out.
The following method (1) or (2) was earned out for use as the cell membrane action.
(1) The above dispersed suspension was diluted with membrane buffer containing 0.1% BSA to a protein concentration of 200 μg/ml, for use as the cell membrane fraction.
(2) The above dispersed suspension was freeze-preserved, and if necessary, thawed, re-dispersed and diluted for use as the cell membrane fraction.
A binding competition experiment with CRF was conducted by the SPA (GE Healthcare) method using a 96-well plate. Five jug of the cell membrane fraction protein, 1 mg of SPA beads and […] ^125I-CRF (Perkin Elmer) were allowed to stand at mom temperature for at least two hours in the presence of a test compound, and the radioactivity of each well after centrifugation (1,200 rpm (260×g), five minutes, room temperature) was measured with a TopCount (registered trademark; Perkin Elmer).
(4) Calculation of Binding Capacity
The radioactivity with addition of a 4,000-fold excess of non-radioactive sauvagine as the nonspecific binding was subtracted from each value, and the resulting value was expressed as a percentage (% of control), with 100% as the radioactivity without addition of the test compound (control).

male Balb/c mice = test: Light/dark box test in mice (anxiolytic effect); type: in vivo; conditions: for anxiolytic effect in the light/dark box test in mice: dose 30 mg/kg, oral administration; for Effective Dose: minimum dose significantly prolonging time spent in light box vs vehicle, oral, one hour prior to test, Balb/c mice
Protocol: Evaluation of Anxiolytic Effect in Light/Dark Box Test in Mice
The light/dark box test in mice was carried out according to a modified method of Belzung C., Misslin R., and Vogel E. et al. (Reference; Behavioural effects of the benzodiazepine receptor partial agonist RO16-6028 in mice, Psychopharmacology, 97, 388-391, 1989). The test apparatus used in this test was a light/dark box including a covered black acrylic box (dark box; 15×10×20 cm), a white acrylic box with top opened (light box; 15×20×20 cm) and a black acrylic tunnel (10×7×4.5 cm) that connects the dark box and the light box and enables a mouse to freely move back and forth between the dark box and light box. In this test apparatus, however, a transparent acrylic plate was used for the front side (20×20 cm) and back side (20×20 cm) of the light box to allow observation of the behavior. After setting illumination so that the light intensity of the floor surface of the light box became 150 Lux, 5-week-old male Balb/c mice (purchased from Nihon Charles River) were introduced into the dark box and the test was started. In the test; the tested compound was suspended in 5% dimethyl sulfoxide, 5% Cremopor EL and 90% physiological saline and orally administered to the test animals one hour prior to the start of the test.
(2) Calculation of Anxiolytic Effect:
The time spent in the light box was measured as an index of the anxiolytic effect, with “spend in the light box” defined as the state in which all limbs of the mice were on the floor of the light box. […] The statistical significance between the vehicle-treated group and the test compound-treated groups was analyzed by one-way layout analysis of variance followed by Dunnett multiple comparison when multiple doses were set for the same test, and by the Mann-Whitney U test when only one dose was set.

limbic system seizure = conditions: Brain Research, 770:89-95; cited from earlier work
rat = conditions: Brain Research, 893:29-35 (2001); cited from earlier work
Tg2576 transgenic mice = conditions: Journal of Neurochemistry, 108: 165-175 (2009); cited from earlier work
ethanol withdrawal rats = conditions: Brain Research, 605:25-32 (1993); cited from earlier work
IBS patients = conditions: Gut 2004, 53:958-964; cited from earlier work
intracerebral amyloid-β = conditions: PNAS 104: 10673-10678 (2007); cited from earlier work
[2] = tested on: ischemic and excitotoxic encephalopathy; conditions: Brain Research, 656: 405-408 (1994); cited from earlier work

Compound: CCN(c1nc(C)cc(N2CC=C(c3cccc(F)c3)CC2)n1)c1ccc(C(C)C)cc1SC [CRA1000]
stress-related reduction in food intake [1]: inhibit

Compound: CCc1nn2c(-c3c(OC)cc(COC)cc3OC)coc2c1N(CC1CCOCC1)CC1CC1 [Example 3, N-(cyclopropylmethyl)-3-[2,6-dimethoxy-4-(methoxymethyl)phenyl]-6-ethyl-N-(tetrahydro-2H-pyran-4-ylmethyl)pyrazolo[5,1-b][1,3]oxazole-7-amine]
IC50 (human CRFR1): 100 nM

Compound: CCc1nn2c(-c3c(OC)cc(COC)cc3OC)c(C)oc2c1N(CC1CC1)CC1CC1 [Example 7, N,N-bis(cyclopropylmethyl)-3-[2,6-dimethoxy-4-(methoxymethyl)phenyl]-6-ethyl-2-methylpyrazolo[5,1-b][1,3]oxazole-7-amine]
IC50 (human CRFR1): 21 nM

Compound: CCc1nn2c(-c3c(OC)cc(COC)cc3OC)c(C)oc2c1N(CC1CC1)CC1CCOC1 (stereo not drawn) [Example 8, N-(cyclopropylmethyl)-3-[2,6-dimethoxy-4-(methoxymethyl)phenyl]-6-ethyl-2-methyl-N-(tetrahydrofuran-3-ylmethyl)pyrazolo[5,1-b][1,3]oxazole-7-amine]
IC50 (human CRFR1): 77 nM

Compound: CCOCc1cc(OC)c(-c2c(C)oc3c(N(CC4CC4)CC4CCOC4)c(CC)nn23)c(OC)c1 (stereo not drawn) [Example 9, N-(cyclopropylmethyl)-3-[4-(ethoxymethyl)-2,6-dimethoxyphenyl]-6-ethyl-2-methyl-N-(tetrahydrofuran-3-ylmethyl)pyrazolo[5,1-b][1,3]oxazole-7-amine]
IC50 (human CRFR1): 44 nM

Compound: CCc1nn2c(-c3c(OC)cc(COC)cc3OC)c(C)oc2c1N(CC1CC1)CC1COCOC1 [Example 14, N-(cyclopropylmethyl)-3-[2,6-dimethoxy-4-(methoxymethyl)phenyl]-N-(1,3-dioxan-5-ylmethyl)-6-ethyl-2-methylpyrazolo[5,1-b][1,3]oxazole-7-amine]
IC50 (human CRFR1): 121 nM

Compound: CCCCN(c1c(CC)nn2c(-c3c(OC)cc(COC)cc3OC)c(C)oc12)C1CCOCC1 [Example 15, N-butyl-3-[2,6-dimethoxy-4-(methoxymethyl)phenyl]-6-ethyl-2-methyl-N-(tetrahydro-2H-pyran-4-yl)pyrazolo[5,1-b][1,3]oxazole-7-amine]
IC50 (human CRFR1): 98 nM

Compound: CCCN(CC1CC1)c1nc(C)nc(Nc2c(Cl)cc(Cl)cc2Cl)c1Cl [NBI-27914]
limbic system seizure (convulsion and epilepsy induced by CRF administration) (limbic system seizure): inhibits
water avoidance stress-related rat catharsis (rat): inhibits
increased levels of Aβ and Aβ plaque deposition induced by stress (Tg2576 transgenic mice): inhibits

Compound: α-helical CRF (9-41)
anxiety behavior in ethanol withdrawal rats (ethanol withdrawal rats): inhibits
abdominal pain and anxiety (IBS patients): reduces
colon intestinal hyperkinesis (IBS patients): inhibits
stress-related increase in intracerebral amyloid-β (intracerebral amyloid-β): suppresses
stress-related reduction in food intake [1]: inhibit
ischemic and excitotoxic encephalopathy [2]: inhibits

Continued, in another order:

IC50 (human CRFR1): 32 nM
Compound: CCc1nn2c(-c3c(OC)cc(COC)cc3OC)c(C)oc2c1N(CC1CCOCC1)CC1CC1 [Example 5, N-(cyclopropylmethyl)-3-[2,6-dimethoxy-4-(methoxymethyl)phenyl]-6-ethyl-2-methyl-N-(tetrahydro-2H-pyran-4-ylmethyl)pyrazolo[5,1-b][1,3]oxazole-7-amine]
anxiolytic effect in the light/dark box test in mice (male Balb/c mice): statistically significant effects
Effective Dose (male Balb/c mice): 30 mg/kg

IC50 (human CRFR1): 43 nM
Compound: CCc1nn2c(-c3c(OC)cc(COC)cc3OC)c(C)oc2c1N(CC(C)C)CC1CCOCC1 [Example 6, 3-[2,6-dimethoxy-4-(methoxymethyl)phenyl]-6-ethyl-N-isobutyl-2-methyl-N-(tetrahydro-2H-pyran-4-ylmethyl)pyrazolo[5,1-b][1,3]oxazole-7-amine]

IC50 (human CRFR1): 71 nM
Compound: COCc1cc(OC)c(-c2c(C)oc3c(N(CC4CCOCC4)CC4CC4)c(C)nn23)c(OC)c1 [Example 10, N-(cyclopropylmethyl)-3-[2,6-dimethoxy-4-(methoxymethyl)phenyl]-2,6-dimethyl-N-(tetrahydro-2H-pyran-4-ylmethyl)pyrazolo[5,1-b][1,3]oxazole-7-amine]
anxiolytic effect in the light/dark box test in mice (male Balb/c mice): statistically significant effects
Effective Dose (male Balb/c mice): 30 mg/kg

IC50 (human CRFR1): 50 nM
Compound: COCc1cc(OC)c(-c2c(C)oc3c(N(CC(C)C)CC4CCOCC4)c(C)nn23)c(OC)c1 [Example 11, 3-[2,6-dimethoxy-4-(methoxymethyl)phenyl]-N-isobutyl-2,6-dimethyl-N-(tetrahydro-2H-pyran-4-ylmethyl)pyrazolo[5,1-b][1,3]oxazole-7-amine]

IC50 (human CRFR1): 79 nM
Compound: COCc1cc(OC)c(-c2c(C)oc3c(N(CC(C)C)CC4CCOC4)c(C)nn23)c(OC)c1 (stereo not drawn) [Example 12, 3-[2,6-dimethoxy-4-(methoxymethyl)phenyl]-N-isobutyl-2,6-dimethyl-N-(tetrahydrofuran-3-ylmethyl)pyrazolo[5,1-b][1,3]oxazole-7-amine]

IC50 (human CRFR1): 61 nM
Compound: CCOCc1cc(OC)c(-c2c(C)oc3c(N(CC4CCOCC4)CC4CC4)c(C)nn23)c(OC)c1 [Example 13, N-(cyclopropylmethyl)-3-[4-(ethoxymethyl)-2,6-dimethoxyphenyl]-2,6-dimethyl-N-(tetrahydro-2H-pyran-4-ylmethyl)pyrazolo[5,1-b][1,3]oxazole-7-amine]

IC50 (human CRFR1): 102 nM
Compound: CCc1nn2c(-c3c(OC)cc(COC)cc3OC)c(C)oc2c1N(CC1CC1)C1CCOCC1 [Example 16, N-(cyclopropylmethyl)-3-[2,6-dimethoxy-4-(methoxymethyl)phenyl]-6-ethyl-2-methyl-N-(tetrahydro-2H-pyran-4-yl)pyrazolo[5,1-b][1,3]oxazole-7-amine]
